Data reported in PubChem BioAssay AID2060499 (Molecular Pharmacology Branch, DTP, NCI, 2025).

Tested on: 777334-354-R2-J4-PDC tumor spheroids with HUVEC/MSC, viability
Assay: Anticancer human tumor 777334-354-R2-J4-PDC patient-derived pancreatic adenocarcinoma cell line growth inhibition [GQUAD]
Details: for IC50: curve of first compound; for viability, T/C: stronger effect = lower value
Outline: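 Tumor cells were grown as complex spheroids with HUVEC endothelial cells and mesenchymal stem cells as stroma. G-quadruplex stabilizers were combined with targeted agents over half-log dilutions from near the clinical Cmax, or from 10 microM.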

[1] = second compound 0.0316 µM, first compound 0.0316 µM
[2] = second compound 0.0316 µM, first compound 0.1 µM
[3] = second compound 0.0316 µM, first compound 0.316 µM
[4] = second compound 0.0316 µM, first compound 1 µM
[5] = second compound 0.0316 µM, first compound 3.16 µM
[6] = second compound 0.0316 µM, first compound 10 µM
[7] = second compound 0.1 µM, first compound 0.0316 µM
[8] = second compound 0.1 µM, first compound 0.1 µM
[9] = second compound 0.1 µM, first compound 0.316 µM
[10] = second compound 0.1 µM, first compound 1 µM
[11] = second compound 0.1 µM, first compound 3.16 µM
[12] = second compound 0.1 µM, first compound 10 µM
[13] = second compound 0.316 µM, first compound 0.0316 µM
[14] = second compound 0.316 µM, first compound 0.1 µM
[15] = second compound 0.316 µM, first compound 0.316 µM
[16] = second compound 0.316 µM, first compound 1 µM
[17] = second compound 0.316 µM, first compound 3.16 µM
[18] = second compound 0.316 µM, first compound 10 µM
[19] = second compound 1 µM, first compound 0.0316 µM
[20] = second compound 1 µM, first compound 0.1 µM
[21] = second compound 1 µM, first compound 0.316 µM
[22] = second compound 1 µM, first compound 1 µM
[23] = second compound 1 µM, first compound 3.16 µM
[24] = second compound 1 µM, first compound 10 µM
[25] = second compound 3.16 µM, first compound 0.0316 µM
[26] = second compound 3.16 µM, first compound 0.1 µM
[27] = second compound 3.16 µM, first compound 0.316 µM
[28] = second compound 3.16 µM, first compound 1 µM
[29] = second compound 3.16 µM, first compound 3.16 µM
[30] = second compound 3.16 µM, first compound 10 µM
[31] = second compound 10 µM, first compound 0.0316 µM
[32] = second compound 10 µM, first compound 0.1 µM
[33] = second compound 10 µM, first compound 0.316 µM
[34] = second compound 10 µM, first compound 1 µM
[35] = second compound 10 µM, first compound 3.16 µM
[36] = second compound 10 µM, first compound 10 µM
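Also: spheroids exposed to compounds for 7 days before readout.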

Structure (SMILES): CC1COCCN1c1cc(C2(S(C)(=N)=O)CC2)nc(-c2ccnc3[nH]ccc23)n1 (stereo unspecified) + Cc1cnc(CNC(=O)c2c(=O)c3ccc(N4CCCN(C)CC4)nc3n3c2sc2ccccc23)cn1
- IC50 (second compound 0.0316 µM): > 10 µM
- IC50 (second compound 0.1 µM): > 10 µM
- IC50 (second compound 0.316 µM): > 10 µM
- IC50 (second compound 1 µM): > 10 µM
- IC50 (second compound 3.16 µM): > 10 µM
- IC50 (second compound 10 µM): > 10 µM
- viability, T/C [1]: 103%
- viability, T/C [2]: 85.7%
- viability, T/C [3]: 113%
- viability, T/C [4]: 93.9%
- viability, T/C [5]: 99%
- viability, T/C [6]: 53.8%
- viability, T/C [7]: 112%
- viability, T/C [8]: 84.4%
- viability, T/C [9]: 94.8%
- viability, T/C [10]: 80.5%
- viability, T/C [11]: 88.9%
- viability, T/C [12]: 53%
- viability, T/C [13]: 84.1%
- viability, T/C [14]: 87.4%
- viability, T/C [15]: 81.2%
- viability, T/C [16]: 82%
- viability, T/C [17]: 86.9%
- viability, T/C [18]: 52.3%
- viability, T/C [19]: 76.2%
- viability, T/C [20]: 93.4%
- viability, T/C [21]: 78.5%
- viability, T/C [22]: 81.5%
- viability, T/C [23]: 68.6%
- viability, T/C [24]: 50.7%
- viability, T/C [25]: 64.5%
- viability, T/C [26]: 57.1%
- viability, T/C [27]: 65%
- viability, T/C [28]: 58.7%
- viability, T/C [29]: 69.2%
- viability, T/C [30]: 54.7%
- viability, T/C [31]: 56.5%
- viability, T/C [32]: 59.5%
- viability, T/C [33]: 53.5%
- viability, T/C [34]: 55.9%
- viability, T/C [35]: 57.5%
- viability, T/C [36]: 44.7%

Structure (SMILES): Cc1cccc(N(C)C(=O)C2C(O)CCN2c2nc(C)cc(C(F)(F)F)c2C#N)c1 (stereo unspecified) + Cc1cnc(CNC(=O)c2c(=O)c3ccc(N4CCCN(C)CC4)nc3n3c2sc2ccccc23)cn1
- IC50 (second compound 0.0316 µM): > 10 µM
- IC50 (second compound 0.1 µM): > 10 µM
- IC50 (second compound 0.316 µM): > 10 µM
- IC50 (second compound 1 µM): > 10 µM
- IC50 (second compound 3.16 µM): > 10 µM
- IC50 (second compound 10 µM): > 10 µM
- viability, T/C [1]: 103%
- viability, T/C [2]: 91.3%
- viability, T/C [3]: 107%
- viability, T/C [4]: 94.5%
- viability, T/C [5]: 105%
- viability, T/C [6]: 100%
- viability, T/C [7]: 108%
- viability, T/C [8]: 92.2%
- viability, T/C [9]: 93.6%
- viability, T/C [10]: 83.5%
- viability, T/C [11]: 95%
- viability, T/C [12]: 85%
- viability, T/C [13]: 82.6%
- viability, T/C [14]: 84.9%
- viability, T/C [15]: 78.1%
- viability, T/C [16]: 84.8%
- viability, T/C [17]: 80.7%
- viability, T/C [18]: 91.7%
- viability, T/C [19]: 65.3%
- viability, T/C [20]: 73%
- viability, T/C [21]: 79.5%
- viability, T/C [22]: 75.8%
- viability, T/C [23]: 71.2%
- viability, T/C [24]: 65.5%
- viability, T/C [25]: 59.3%
- viability, T/C [26]: 67%
- viability, T/C [27]: 58.4%
- viability, T/C [28]: 62.3%
- viability, T/C [29]: 67.2%
- viability, T/C [30]: 60.6%
- viability, T/C [31]: 63%
- viability, T/C [32]: 63.2%
- viability, T/C [33]: 59.6%
- viability, T/C [34]: 64.5%
- viability, T/C [35]: 64.5%
- viability, T/C [36]: 62.7%

Structure (SMILES): O=C(c1cc(Cc2n[nH]c(=O)c3ccccc23)ccc1F)N1CCN(C(=O)C2CC2)CC1 + Cc1cnc(CNC(=O)c2c(=O)c3ccc(N4CCCN(C)CC4)nc3n3c2sc2ccccc23)cn1
- IC50 (second compound 0.0316 µM): > 10 µM
- IC50 (second compound 0.1 µM): > 10 µM
- IC50 (second compound 0.316 µM): > 10 µM
- IC50 (second compound 1 µM): > 10 µM
- IC50 (second compound 3.16 µM): > 10 µM
- IC50 (second compound 10 µM): > 10 µM
- viability, T/C [1]: 85.9%
- viability, T/C [2]: 94.2%
- viability, T/C [3]: 96.6%
- viability, T/C [4]: 92%
- viability, T/C [5]: 90.6%
- viability, T/C [6]: 75.7%
- viability, T/C [7]: 88.9%
- viability, T/C [8]: 88.2%
- viability, T/C [9]: 91.8%
- viability, T/C [10]: 88%
- viability, T/C [11]: 76.7%
- viability, T/C [12]: 70.3%
- viability, T/C [13]: 79.9%
- viability, T/C [14]: 76.5%
- viability, T/C [15]: 69.7%
- viability, T/C [16]: 75.1%
- viability, T/C [17]: 74.3%
- viability, T/C [18]: 64.9%
- viability, T/C [19]: 73.8%
- viability, T/C [20]: 75.6%
- viability, T/C [21]: 76.2%
- viability, T/C [22]: 68.8%
- viability, T/C [23]: 69.5%
- viability, T/C [24]: 60.4%
- viability, T/C [25]: 56.5%
- viability, T/C [26]: 55.9%
- viability, T/C [27]: 63%
- viability, T/C [28]: 64.2%
- viability, T/C [29]: 64.9%
- viability, T/C [30]: 56.2%
- viability, T/C [31]: 61.5%
- viability, T/C [32]: 54.2%
- viability, T/C [33]: 51.9%
- viability, T/C [34]: 55.8%
- viability, T/C [35]: 61.9%
- viability, T/C [36]: 47.7%
